Experimental data reported in publication PMC6149849, “Cymantrenyl-Nucleobases: Synthesis, Anticancer, Antitrypanosomal and Antimicrobial Activity Studies” (Molecules : A Journal of Synthetic Chemistry and Natural …, 2017).
Where two headings read alike, the source gives them in different places.

Assays:
SKOV-3 cells = test: Intracellular ROS, H2DCF-DA fluorescent probe; assay type: cell-based, human; settings: SKOV-3, 0.5 × IC50, IC50, 2 × IC50
Excerpt: Oxidative stress is a part of the cytotoxic activity of many anticancer agents and the production of reactive oxygen species (ROS) is considered as one of the main molecular mechanisms accompanying chemotherapy, radiotherapy, and photodynamic therapy. Since ROS can act as both oxidants and antioxidants, depending on the conditions, pro- and anti-oxidant therapies have been proposed for the treatment of cancer. So far, both ROS scavenging and ROS boosting anticancer therapies have shown promising results in vitro and in vivo [48]. Using an appropriate fluorescence probe, we measured the amount of ROS in cancer cells that were treated with cymantrene derivatives. […] The greatest increase in ROS was observed after […], with the highest concentration of cymantrene conjugates employed (2 × IC50) (Figure 8). […] As compounds 1, 3, 5, and C were effective in the production ROS, as well as in the induction of apoptosis and autophagy, these processes might contribute together to the cytotoxic action of the molecules.
The intracellular ROS were measured with the oxidation-sensitive fluorescent probes 2′,7′-dichlorodihydrofluorescein diacetate (H2DCF-DA) (Sigma-Aldrich, St. Louis, MO, USA), as described elsewhere. The cell-permeant non-fluorescent dye H2DCF-DA is a reduced form of fluorescein that inside the cell, upon cleavage of the acetate groups by intracellular esterases and oxidation by ROS, is converted into the highly fluorescent product 2′,7′-dichlorofluorescein (DCF) (λex/λem: 498/525 nm). For the assay, 2 × 10^4 cells were seeded into wells of black flat-bottom 96-well microplates a day before the experiment. The next day, test compounds were added at concentrations of 0.5 × IC50, 1 × IC50, and 2 × IC50. […] After 24 h incubation, medium was removed, cell monolayers were washed twice with HBSS and 5 µM H2DCF-DA, dissolved in HBSS, was added to each well. The cells were incubated with the fluorescent probe for 30 min in the dark at 37 °C, and then the fluorescence of produced DCF was monitored over a time period of 0–3 h at 15-min intervals with a microplate reader.

[1] = test system: MCF-7/DX (estrogen-responsive breast adenocarcinoma resistant to doxorubicin); test: cells; assay type: cell-based, human
Protocol: The inhibitory effect of cymantrene derivatives on cell proliferation and growth was determined based on survival curves and was expressed as IC50 values (concentration required to achieve a 50% decrease in cell viability when compared to the viability of untreated control cells) calculated using GraphPad Prism 4.02 software for Windows (GraphPad Software, San Diego, CA, USA). Cell viability was determined by the MTT microplate spectrophotometric cytotoxicity test.
Anticancer activity of cymantrene derivetives were determined on the basis of their cytotoxic effects on a panel of human cancer cells, as derived from different types of solid tumors: estrogen responsive breast adenocarcinoma (MCF-7), triple negative breast adenocarcinoma (MDA-MB-231), ovarian adenocarcinoma (SKOV-3), non-small cell lung carcinoma (A549), hepatocellular carcinoma (HepG2), and glioblastoma (U-87 MG).
Cells were grown as a monolayer in DMEM growth medium, supplemented with 10% FBS, penicillin (10 U/mL) and streptomycin (50 μg/mL), under standard conditions (37 °C, 5% CO2 and 95% air, 100% humidity) and periodically checked for Mycoplasma contamination.
The cytotoxicity of cymantrene derivatives was evaluated by the MTT microplate methods as described elsewhere [67] by incubating the cells with increasing concentrations of tested compounds for 24 h. Briefly, 0.1 mL of logarithmically growing cells were seeded in a 96-well microplate (5 × 10^4 cells/well) a day before the experiments and after 24 h of culture, tested compounds, dissolved in DMSO, and diluted in culture medium, were added. […] After further incubation for 24 h, the medium was replaced with fresh medium and the cells were allowed to grow for additional 48 h. Then, the medium was aspirated and 0.05 mL of MTT (final concentration of 5 mg/mL medium) added to each well, and the cells were incubated for further 4 h. The absorbance of the product, resulting from the MTT reduction, was read with a microplate reader at 545 nm. The percentage of viable cells was calculated by comparing the absorbance of treated cells with that of the untreated control cells (taken as 100%). The IC50 concentration of each compound was calculated from the cell survival curves using GraphPad Prism 4.02 software for Windows (GraphPad Software, San Diego, CA, USA).

[2] = test system: Clinical S. aureus (MRSA) 31/12; test: Antibacterial liquid microdilution, clinical isolate; assay type: cell-based, Staphylococcus aureus
Protocol: (§1) This lack of activity against E. coli can be probably explained by an impeded cellular uptake of the compounds through the Gram-negative cell wall that consists of two layers and effective protein efflux pump systems. The antibacterial activities of 1 and C were further tested against four clinical isolates of S. aureus and two clinical isolates of S. epidermidis (Table 4).
(§2) The antibacterial activity of CymH, 1–7 and C and the reference drugs penicillin G and polymyxin B was tested by the liquid microdilution method under standard conditions using twofold dilution series, as described in the Clinical and Laboratory Standards Institute (CLSI), reference method M07-A8, and expressed as minimal inhibitory concentration (MIC) values. A panel of Gram-positive bacterial strains, S. aureus ATCC® 29213 (sensitive to methicillin, (MSSA)), S. aureus ATCC® 43300 (resistant to methicillin, (MRSA)), S. aureus ATCC 700787™ (intermediate to vancomycin, (VISA)), and S. epidermidis ATCC 12228™, and one Gram-negative, strain E. coli ATCC BAA-198™ (ESBL) were used. In addition, four clinical isolates of S. aureus (MSSA and MRSA) and two clinical isolates of S. epidermidis that were collected from different patients at the Medical University of Warsaw, Poland, were also tested. The bacterial cells were cultivated on tryptic soy agar (TSA) and nutrient agar (NA), according to ATCC recommendations. All of the strains were incubated at 37 °C. Tested compounds were dissolved in DMSO and then serially diluted twofold with cation-adjusted Mueller-Hinton broth (CAMHB). Then, 95 µL of the dilutions were dispensed into microdilution sterile plates (Mar-Four), followed by the addition of 5 µL of bacteria inoculum containing 5 × 10^4 CFU/mL. The final concentrations of the compounds ranged from 512 to 2 µg/mL. Each compound was tested in triplicate, and Penicillin G (8–0.15 µg/mL) and Polymyxin B (256–0.0625 µg/mL) were used as controls. The plates were incubated at 37 °C for 18 to 24 h depending on the bacterial strain. Thereafter, the absorbance was measured at λ = 540 nm and λ = 595 nm using a Spectrostar Omega microplate reader (BMG Labtech, Offenburg, Germany). The MIC value was defined as the lowest concentration of a compound that reduced the growth by 100%.

[3] = test system: Clinical S. aureus (MRSA) 44/12; test: as above; assay type: cell-based, Staphylococcus aureus
Protocol: as §1, §2

[4] = test system: Clinical S. aureus (MSSA) 26/11; test: as above; assay type: cell-based, Staphylococcus aureus
Protocol: as §1, §2

[5] = test system: Clinical S. aureus (MSSA) 30/11; test: as above; assay type: cell-based, Staphylococcus aureus
Protocol: as §1, §2

[6] = test system: Clinical S. epidermidis (MSSA) 37/12; test: as above; assay type: cell-based, Staphylococcus epidermidis
Protocol: as §1, §2

[7] = test system: Clinical S. epidermidis (MSSA) 43/12; test: as above; assay type: cell-based, Staphylococcus epidermidis
Protocol: as §1, §2

S. aureus ATCC 25923 = test: Effect on bacterial morphology (SEM) with MIC and MBC; assay type: cell-based, Staphylococcus aureus
Protocol: In order to elucidate the bactericidal mechanism of action of cymantrenes, the effect of compound 1 on the morphology of S. aureus ATCC 25923 was exemplary studied by scanning electron microscopy (SEM) (Figure 9).
The effect of compound 1 on bacterial morphology was studied by SEM, as previously described. Briefly, samples of S. aureus ATCC 25923 (10^5 CFU/mL) were centrifuged (600× g, 5 min) and resuspended in growth medium containing compound 1 at concentration of 48 or 64 µg/mL. After incubation for 24 h at 37 °C, the cells were washed twice with PBS (0.1 × PBS), fixed with 2.5% glutaraldehyde (overnight), filtered (0.2 μm, pore size cutoff), and subsequently dehydrated in a series of ethanol washes (30%, 50%, 70%, 80%, 90% and 100%; twice for 15 min). The solvent was then evaporated and the samples were coated with a thin layer of platinum (15 nm). SEM images were recorded using a SEM Inspect F50 (FEI Co., Eindhoven, The Netherlands) at an energy range of 10–15 keV.

[8] = test system: bloodstream forms of T. brucei clone 427-221a; settings: cited from earlier work
[9] = test system: human myeloid leukemia HL-60 cells; settings: cited from earlier work
[10] = 24 h incubation, MTT, means ± SEM, read-out: cytotoxicity IC50, MCF-7/DX

SMILES | generated intracellular ROS (SKOV-3 cells) | MIC, Clinical S. aureus (MRSA) 31/12 [2] [µg/mL] | MIC, Clinical S. aureus (MRSA) 44/12 [3] [µg/mL] | MIC, Clinical S. aureus (MSSA) 26/11 [4] [µg/mL] | MIC, Clinical S. aureus (MSSA) 30/11 [5] [µg/mL] | MIC, Clinical S. epidermidis (MSSA) 37/12 [6] [µg/mL] | MIC, Clinical S. epidermidis (MSSA) 43/12 [7] [µg/mL] | IC50 [1, 10] [µM] | further results
Nc1ncnc2c1ncn2CCC(O)[C]12[CH]3[CH]4[CH]5[CH]1[Mn]4532[P](c1ccccc1)(c1ccccc1)c1ccccc1.[C-]#[O+].[C-]#[O+] (racemic) [Compound 5] | generated the largest amounts of ROS |  |  |  |  |  |  |  | 
O=C(CCn1cc(F)c(=O)[nH]c1=O)[C]12[CH]3[CH]4[CH]5[CH]1[Mn]4532.[C-]#[O+].[C-]#[O+].[C-]#[O+] (centres unmarked) [Compound 1] | generated the largest amounts of ROS | 64 | 32 | 32 | 64 | 4 | 8 |  | IC50 [1]: 137 ± 3.41 µM; MIC, S. aureus ATCC 25923 (S. aureus ATCC 25923): 32 µg/mL; minimal bactericidal concentration; MBC, S. aureus ATCC 25923 (S. aureus ATCC 25923): 128 µg/mL; bacterial morphology by SEM (S. aureus ATCC 25923; 48 µg/mL and 64 µg/mL, 24 h): severe morphological alterations in cell dimensions and structure, as well as the disruption of the outer envelope
O=c1[nH]c(=O)n(CCC(O)[C]23[CH]4[CH]5[CH]6[CH]2[Mn]5643[P](c2ccccc2)(c2ccccc2)c2ccccc2)cc1F.[C-]#[O+].[C-]#[O+] (racemic) [Compound 3] | generated the largest amounts of ROS |  |  |  |  |  |  | 39.9 ± 1.41 | 
O=[C]=[Mn](=[C]=O)(=[C]=O)[CH]1C=CC=C1 [CymH, tricarbonyl(η^5-cyclopentadienyl)manganese, reference compound] |  |  |  |  |  |  |  | 144 ± 2.24 | 
Nc1ncnc2c1ncn2CCC(O)[C]12[CH]3[CH]4[CH]5[CH]1[Mn]45321[P](c2ccccc2)(c2ccccc2)CC[P]1(c1ccccc1)c1ccccc1.[C-]#[O+] (racemic) [Compound C] | generated the largest amounts of ROS | 32 | 32 | 32 | 32 | 16 | 16 |  | MIC and GI50 ratios of cytotoxic to trypanocidal activities ([8]; HL-60 / T. brucei): 7–13; Selectivity GI50 Ratio ([8]; HL-60 / T. brucei): 13.1; Selectivity MIC Ratio ([8]; HL-60 / T. brucei): 10; GI50 [8]: 1.67 ± 0.37 µM; T. brucei MIC [8]: 10 µM; GI50 [9]: 21.8 ± 8.6 µM; HL-60 MIC [9]: 100 µM
